This note sets out measurements from US10961187B2, “Substituted N-acetyl-L-cysteine derivatives and related compounds” (Promentis Pharmaceuticals, Inc., priority 2013, dated 2021).

Test [1] can be described thus: Brain levels of glutathione following oral administration. The test is classed as in vivo. The conditions noted are these: C57BL/6 mice, 100 mg/kg oral, 4 hours; for glutathione in the brain: brain tissue. On the procedure: A compound of the invention was administered orally to C57BL/6 mice at either 10 or 100 mg/kg. Brain samples were collected at 0.25, 0.50, 1, 2 and 4 hours following the oral administration. Levels of NAC and glutathione were quantified in the brain samples using liquid chromatography-mass spectrometry (LC-MS/MS).

Test [2] addresses T1, System xc− (Homo sapiens, UniProt Q9UPY5).
T1 construct: in vitro culture system of human glial cells from brain astrocytoma (1321N1); endogenous in cells; host or cells: 1321N1 human astrocytoma cells
T1 sequence (Q9UPY5 1-501): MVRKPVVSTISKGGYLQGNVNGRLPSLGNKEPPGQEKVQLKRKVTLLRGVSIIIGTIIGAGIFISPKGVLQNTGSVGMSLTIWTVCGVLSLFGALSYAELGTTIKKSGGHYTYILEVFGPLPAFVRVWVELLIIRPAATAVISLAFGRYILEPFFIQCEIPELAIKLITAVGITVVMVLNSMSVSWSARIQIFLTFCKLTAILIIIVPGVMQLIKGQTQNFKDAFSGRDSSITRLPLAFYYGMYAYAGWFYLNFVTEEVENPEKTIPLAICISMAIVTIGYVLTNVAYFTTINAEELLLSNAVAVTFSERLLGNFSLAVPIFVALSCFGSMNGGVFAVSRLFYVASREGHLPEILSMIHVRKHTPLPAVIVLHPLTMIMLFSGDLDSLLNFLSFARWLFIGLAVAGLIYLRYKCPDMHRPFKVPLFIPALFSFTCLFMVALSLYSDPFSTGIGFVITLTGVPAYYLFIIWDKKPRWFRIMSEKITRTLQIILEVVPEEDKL
T1 sequence (P08195 1-529 partner): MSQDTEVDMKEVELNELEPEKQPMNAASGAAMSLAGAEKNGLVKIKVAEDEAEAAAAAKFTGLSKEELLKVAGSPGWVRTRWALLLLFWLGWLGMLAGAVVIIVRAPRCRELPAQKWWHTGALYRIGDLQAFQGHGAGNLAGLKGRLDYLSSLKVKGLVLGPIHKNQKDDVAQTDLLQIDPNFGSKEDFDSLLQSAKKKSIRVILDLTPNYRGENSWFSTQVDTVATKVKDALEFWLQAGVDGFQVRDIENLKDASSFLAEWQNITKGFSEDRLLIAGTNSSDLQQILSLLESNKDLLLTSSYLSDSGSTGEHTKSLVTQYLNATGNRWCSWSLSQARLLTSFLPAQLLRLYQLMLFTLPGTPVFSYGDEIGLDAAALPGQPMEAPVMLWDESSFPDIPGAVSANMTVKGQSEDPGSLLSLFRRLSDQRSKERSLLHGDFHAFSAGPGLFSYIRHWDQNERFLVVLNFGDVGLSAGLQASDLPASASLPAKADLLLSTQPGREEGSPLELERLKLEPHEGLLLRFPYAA
Put plainly: 3H-glutamate release from human glial cells from brain astrocytoma (1321N1). Particulars: at 3 hours, 1321N1 cells. The test is classed as cell-based. The method, then:
This assay also uses the cell culture system of human glial cells from brain astrocytoma (1321N1) described above. Initially, cells are washed with HBBSS, and ^3H-glutamate is added (PerkinElmer: 1 mCi/mL stock solution is diluted (30 μL+500 HBBSS) and 10 μL of diluted radiolabel is added to each well). Following a 1 hour incubation to load the cells with the labeled glutamate, the cells are washed again with HBBSS, and the drug is added. At 30, 90, and 180 minutes, 50 μL of extracellular media is sampled from each well and is measured using a Beckman LS 6500 scintillation counter.

In test [3] the target is T1, System xc−. The test is described as follows: 14C-cystine uptake in human glial cells from brain astrocytoma (1321N1). The test is classed as cell-based. The conditions noted are these: 1321N1 cells. On the procedure:
The goal of these experiments was to determine ^14C-cystine uptake.
The screening of compounds was performed using an in vitro culture system of human glial cells from brain astrocytoma (1321N1). Cells were plated on 24 well plates coated with poly-D-lysine and laminin and grown in a balanced salt solution supplemented with 5% heat inactivated horse serum, 5% fetal bovine serum, 2 mM glutamine and glucose (total 21 mM). Cultures were maintained in humidified 5% CO2 incubators at 37° C. for 3-4 days before experiments were performed, at this time the cultures has formed a single confluent layer. For experiments, cultures were washed 3 times into a Na-free HEPES and HCO3^− buffered balanced salt solution. After 1 hour, the test compounds are added. Following a three hour incubation, ^14C-cystine (0.025 mCi/mL) was then added for 20 minutes. Following the ^14C-cystine exposure, cultures were washed 3 times with ice cold HEPES buffered saline solution and dissolved in 250 μl sodium dodecyl sulfate (0.1%). An aliquot (200 μl) was removed and added to scintillation fluid for counting. Values were normalized to ^14C-cystine uptake in untreated controls on the same experimental plate.

The structures appear in SMILES notation.

Take `CC(=O)N[C@@H](CSC(=O)c1ccc(C)cc1)C(=O)O` [Pro-2023, (2R)-2-Acetylamino-3-(4-methyl-benzoylsulfanyl)-propionic acid]: in test [1], the “glutathione in the brain, times that of the vehicle” value is given as “about 2 times” and the “glutathione in the brain” value is “about 200 nmol/g”. Further, the “increase in 3H-glutamate release” value on System xc− [2] (300 μM) is on record as “approximately 135%”. In addition, the inhibition at 1000 µM on System xc− [3] (1000 μM, three hour incubation, read-out: decrease (inhibition) in 14C-cystine uptake) is approximately 45%.

Consider `CCOC(=O)[C@H](CSC(=O)C1CSC(=O)N1)NC(C)=O` (stereo partly drawn) [Pro-4047, Ethyl (2R)-2-acetamido-3-(2-oxo-1,3-thiazolidine-4-carbonylsulfanyl) propanoate], for which, on System xc− [2] (100 μM), the “increase in 3H-glutamate release” value is “approximately 40%”. At System xc− [3] (over the concentrations tested, dose-dependent), the “decrease in 14C-cystine uptake” value is given as 20-60%.

`CCOC(=O)[C@H](CSC(=O)c1ccc(C)cc1)NC(C)=O` [Pro-4051, Ethyl (2R)-2-acetamido-3-(4-methylbenzoylsulfanyl)propanoate]: in test [1], the “glutathione in the brain, times that of the vehicle” value is on record as “about 1.05 times” and the “glutathione in the brain” value is on record as “about 1960 nmol/g”. In addition, at System xc− [2] (300 μM), the “increase in 3H-glutamate release” value was “approximately 100%”. The “decrease in 14C-cystine uptake” value on System xc− [3] (100 μM (most effective concentration), average of three experiments) is given as “approximately 28%”.

A word on the inhibition: it is the share of the control response that was lost under treatment.
